{"source": "paper PMC6925260", "about": "(Nature Communications, 2019)", "key": {"[1]": {"molecular_target": "T1, K329A PPARγ LBD / NCoR peptide (Homo sapiens, UniProt P37231, K329A)", "T1 construct": "6× His tag with TEV recognition site (N, cleaved yes); made in house; host or cells: E. coli BL21 (DE3) gold", "T1 sequence (P37231 230-505 K329A)": "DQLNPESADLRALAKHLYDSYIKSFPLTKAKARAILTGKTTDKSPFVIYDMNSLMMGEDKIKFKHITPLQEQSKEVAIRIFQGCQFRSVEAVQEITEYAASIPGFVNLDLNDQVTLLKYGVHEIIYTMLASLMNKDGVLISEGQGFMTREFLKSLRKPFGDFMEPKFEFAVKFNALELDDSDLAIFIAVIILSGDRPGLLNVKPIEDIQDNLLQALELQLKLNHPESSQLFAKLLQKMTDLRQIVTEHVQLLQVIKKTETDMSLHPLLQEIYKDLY", "assay": "Fluorescence anisotropy, NCoR peptide to K329A PPARγ LBD", "assay_type": "binding", "conditions": "read-out: NCoR dissociation constant average, K329A; Supp. Fig. 11", "procedure": "(§1) These samples were then plated as usual."}, "[2]": {"test_system": "PPARγ LBD, deletion of helix 12 / SMRT peptide", "assay": "Fluorescence anisotropy, SMRT peptide to helix 12 deleted (DH12) PPARγ LBD", "assay_type": "binding", "procedure": "as §1"}, "[3]": {"molecular_target": "T2, N340A PPARγ LBD / NCoR peptide (Homo sapiens, UniProt P37231, N340A)", "T2 construct": "6× His tag with TEV recognition site (N, cleaved yes); made in house; host or cells: E. coli BL21 (DE3) gold", "T2 sequence (P37231 230-505 N340A)": "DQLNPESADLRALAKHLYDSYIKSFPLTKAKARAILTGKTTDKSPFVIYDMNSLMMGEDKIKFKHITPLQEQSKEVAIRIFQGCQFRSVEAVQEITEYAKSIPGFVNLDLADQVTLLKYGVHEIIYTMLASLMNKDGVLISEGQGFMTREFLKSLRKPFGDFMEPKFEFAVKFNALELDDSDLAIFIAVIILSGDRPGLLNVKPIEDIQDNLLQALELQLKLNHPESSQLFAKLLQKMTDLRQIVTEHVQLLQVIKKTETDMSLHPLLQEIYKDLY", "assay": "Fluorescence anisotropy, NCoR peptide to N340A PPARγ LBD", "assay_type": "binding", "conditions": "read-out: NCoR dissociation constant average, N340A; Supp. Fig. 11", "procedure": "as §1"}, "wt PPARg LBD": {"molecular_target": "wt PPARg LBD", "assay": "Supplementary Figure 11: fluorescence anisotropy dissociation constants, wt PPARγ LBD (peptide not given)", "assay_type": "binding"}, "[4]": {"molecular_target": "PPARγ LBD, deletion of helix 12 / NCoR peptide", "assay": "Fluorescence anisotropy, NCoR peptide to helix 12 deleted (DH12) PPARγ LBD", "assay_type": "binding", "conditions": "read-out: NCoR dissociation constant average, DH12; Supp. Fig. 11", "procedure": "as §1"}, "PPARγ": {"test_system": "PPARγ", "conditions": "Supp. Table 9 summary; comparator apo/vehicle; ref 1,4 (supplement); cited from earlier work"}, "K329A PPARg LBD": {"molecular_target": "K329A PPARg LBD", "assay": "Supplementary Figure 11: fluorescence anisotropy dissociation constants, K329A (peptide not given)"}, "[5]": {"molecular_target": "T3, PPARγ LBD (wt) / NCoR CoRNR box peptide (Homo sapiens, UniProt P37231)", "T3 construct": "6× His tag with TEV recognition site (N, cleaved yes); made in house; host or cells: E. coli BL21 (DE3) gold", "T3 sequence (P37231 230-505)": "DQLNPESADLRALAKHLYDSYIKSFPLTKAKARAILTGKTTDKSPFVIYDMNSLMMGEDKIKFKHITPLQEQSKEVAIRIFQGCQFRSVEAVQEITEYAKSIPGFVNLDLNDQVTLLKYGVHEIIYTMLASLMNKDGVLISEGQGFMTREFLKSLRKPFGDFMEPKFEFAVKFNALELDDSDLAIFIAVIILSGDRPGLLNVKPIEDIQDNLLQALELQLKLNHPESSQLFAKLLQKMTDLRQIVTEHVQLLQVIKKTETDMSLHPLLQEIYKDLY", "assay": "Fluorescence anisotropy, NCoR peptide to wt PPARγ LBD (alone or ligand bound)", "assay_type": "binding", "procedure": "as §1"}}, "note": "Read-outs that look alike come from different tables or passages of the source."}
{"smiles": "O=C(Nc1ccccc1)c1cc([N+](=O)[O-])ccc1Cl", "note": "[GW9662]", "values": [{"measurement": "Kd", "setting": "[1]", "result": 1820, "unit": "nM"}, {"measurement": "SMRT Kd, wt vs DH12 mean difference ± SE", "setting": "[2]; Supp. Fig. 12", "result": "314 ±631"}, {"measurement": "Kd", "setting": "[2]; Supp. Fig. 12, read-out: SMRT dissociation constant average, DH12", "result": 320, "unit": "nM"}, {"measurement": "Kd", "setting": "[2]; run SMRT FP 4 5 18, read-out: SMRT dissociation constant, DH12", "result": 361, "unit": "nM"}, {"measurement": "Kd", "setting": "[2]; run SMRT FP 4 6 18, read-out: SMRT dissociation constant, DH12", "result": 301, "unit": "nM"}, {"measurement": "Kd", "setting": "[2]; run SMRT FP 4 10 18, read-out: SMRT dissociation constant, DH12", "result": 298, "unit": "nM"}, {"measurement": "Kd", "setting": "[3]", "result": 485, "unit": "nM"}, {"measurement": "Kd", "setting": "wt PPARg LBD; average of the listed data sets, read-out: dissociation constant, Average wt values", "result": 255, "unit": "nM"}, {"measurement": "Kd", "setting": "wt PPARg LBD; data set 2 28 18 FP inverse agonism, read-out: dissociation constant", "result": 242, "unit": "nM"}, {"measurement": "Kd", "setting": "wt PPARg LBD; data set FP 3 15 18 Inverse agonism part 2, read-out: dissociation constant", "result": 269, "unit": "nM"}, {"measurement": "Kd", "setting": "wt PPARg LBD; data set FP K329A K347A 3 20 18, read-out: dissociation constant", "result": 254, "unit": "nM"}, {"measurement": "Kd", "setting": "[4]", "result": 93, "unit": "nM"}, {"measurement": "effect on reporter expression in cells", "setting": "PPARγ", "result": "no effect"}, {"measurement": "Kd mutant/Kd wt", "setting": "K329A PPARg LBD; ratio of averages", "result": 7.158}, {"measurement": "Kd", "setting": "K329A PPARg LBD; read-out: dissociation constant, Average K329A values, average of the listed data sets", "result": 1820, "unit": "nM"}, {"measurement": "Kd", "setting": "K329A PPARg LBD; read-out: dissociation constant, data set FP 3 15 18 Inverse agonism part 2", "result": 1800, "unit": "nM"}, {"measurement": "Kd", "setting": "K329A PPARg LBD; read-out: dissociation constant, data set FP K329A K347A 3 20 18", "result": 1850, "unit": "nM"}, {"measurement": "NCoR Kd mean difference ±SE, Apo vs ligand", "setting": "[5]; Supp. Table 3, wt, one-way ANOVA, Dunnett's, 11 df", "result": "150 ±39"}, {"measurement": "effect on corepressor CoRNR box peptide affinity", "setting": "[5]; Supp. Table 9 summary, NCoR and SMRT, comparator apo", "result": "é"}, {"measurement": "Kd", "setting": "[5]; read-out: NCoR Kd, wt, Supp. Table 2, wt values not from the same experiment as PPARγC313A,Q322C-BTFA (first wt column)", "result": 273, "unit": "nM"}, {"measurement": "Kd", "setting": "[5]; read-out: NCoR Kd, WT, ligand-bound, run 1", "result": 219, "unit": "nM"}, {"measurement": "Kd", "setting": "[5]; read-out: NCoR Kd, WT, ligand-bound, run 2", "result": 157, "unit": "nM"}, {"measurement": "Kd", "setting": "[5]; read-out: NCoR WT Kd, Supp. Table 1, wt PPARγ LBD, FITC peptide 50 nM, fluorescence anisotropy, pH 7.4, 2 h room temperature, average of two technical replicates", "result": 420, "unit": "nM"}, {"measurement": "Kd", "setting": "[5]; read-out: NCoR dissociation constant average, wt, Supp. Fig. 11", "result": 255, "unit": "nM"}, {"measurement": "effect on affinity/recruitment of NCoR CoRNR peptide", "setting": "[5]; versus apo", "result": "increase affinity"}]}
